Reference: ChEMBL document CHEMBL1142535, “Rational design and synthesis of 4-((1R,2R)-2-hydroxycyclohexyl)-2(trifluoromethyl)benzonitrile (PF-998425), a novel, nonsteroidal androgen receptor antagonist devoid of phototoxicity for dermatological indications” (J Med Chem, 2008)
Calls of active or inactive are those of the source. The rule behind the calls is not given here.

Columns and labels:
Syrian golden hamster [1] = assay: Reduction of sebum ester production in golden syrian hamster ear topically dosed at 3% twice daily 5 days per week for two weeks; format: functional, Mesocricetus auratus; design: scale not given: the % may be the effect or the level left
Progesterone receptor = target: T1, Progesterone receptor (Homo sapiens, UniProt P06401); assay: Inhibition of progesterone receptor
T1 sequence (P06401 whole entry): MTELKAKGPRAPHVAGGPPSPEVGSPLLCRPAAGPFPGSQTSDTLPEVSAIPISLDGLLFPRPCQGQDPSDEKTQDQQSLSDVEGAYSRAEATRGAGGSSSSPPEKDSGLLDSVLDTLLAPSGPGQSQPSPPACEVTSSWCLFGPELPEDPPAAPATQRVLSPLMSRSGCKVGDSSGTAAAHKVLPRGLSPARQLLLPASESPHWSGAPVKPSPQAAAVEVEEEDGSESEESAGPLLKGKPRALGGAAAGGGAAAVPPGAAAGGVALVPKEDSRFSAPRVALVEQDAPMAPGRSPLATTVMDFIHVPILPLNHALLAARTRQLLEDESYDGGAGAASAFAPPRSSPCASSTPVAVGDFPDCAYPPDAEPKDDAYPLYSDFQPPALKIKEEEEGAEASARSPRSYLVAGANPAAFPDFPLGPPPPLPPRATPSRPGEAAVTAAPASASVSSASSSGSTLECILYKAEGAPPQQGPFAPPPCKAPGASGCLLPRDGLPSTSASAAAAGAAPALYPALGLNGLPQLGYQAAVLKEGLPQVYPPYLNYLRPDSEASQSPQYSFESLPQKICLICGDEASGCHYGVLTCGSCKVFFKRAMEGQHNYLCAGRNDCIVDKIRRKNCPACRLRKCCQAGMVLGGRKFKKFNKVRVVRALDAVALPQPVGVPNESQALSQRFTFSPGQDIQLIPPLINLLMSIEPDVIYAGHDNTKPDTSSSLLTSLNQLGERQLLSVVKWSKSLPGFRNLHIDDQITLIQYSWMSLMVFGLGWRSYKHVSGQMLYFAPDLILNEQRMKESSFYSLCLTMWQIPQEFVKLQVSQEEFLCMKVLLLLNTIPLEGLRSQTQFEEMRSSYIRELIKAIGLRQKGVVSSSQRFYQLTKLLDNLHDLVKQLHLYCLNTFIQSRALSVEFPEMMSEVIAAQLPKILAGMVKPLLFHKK

Androgen receptor [2] = target: T2, Androgen receptor (Homo sapiens, UniProt P10275); assay: biochemical
T2 sequence (P10275 whole entry): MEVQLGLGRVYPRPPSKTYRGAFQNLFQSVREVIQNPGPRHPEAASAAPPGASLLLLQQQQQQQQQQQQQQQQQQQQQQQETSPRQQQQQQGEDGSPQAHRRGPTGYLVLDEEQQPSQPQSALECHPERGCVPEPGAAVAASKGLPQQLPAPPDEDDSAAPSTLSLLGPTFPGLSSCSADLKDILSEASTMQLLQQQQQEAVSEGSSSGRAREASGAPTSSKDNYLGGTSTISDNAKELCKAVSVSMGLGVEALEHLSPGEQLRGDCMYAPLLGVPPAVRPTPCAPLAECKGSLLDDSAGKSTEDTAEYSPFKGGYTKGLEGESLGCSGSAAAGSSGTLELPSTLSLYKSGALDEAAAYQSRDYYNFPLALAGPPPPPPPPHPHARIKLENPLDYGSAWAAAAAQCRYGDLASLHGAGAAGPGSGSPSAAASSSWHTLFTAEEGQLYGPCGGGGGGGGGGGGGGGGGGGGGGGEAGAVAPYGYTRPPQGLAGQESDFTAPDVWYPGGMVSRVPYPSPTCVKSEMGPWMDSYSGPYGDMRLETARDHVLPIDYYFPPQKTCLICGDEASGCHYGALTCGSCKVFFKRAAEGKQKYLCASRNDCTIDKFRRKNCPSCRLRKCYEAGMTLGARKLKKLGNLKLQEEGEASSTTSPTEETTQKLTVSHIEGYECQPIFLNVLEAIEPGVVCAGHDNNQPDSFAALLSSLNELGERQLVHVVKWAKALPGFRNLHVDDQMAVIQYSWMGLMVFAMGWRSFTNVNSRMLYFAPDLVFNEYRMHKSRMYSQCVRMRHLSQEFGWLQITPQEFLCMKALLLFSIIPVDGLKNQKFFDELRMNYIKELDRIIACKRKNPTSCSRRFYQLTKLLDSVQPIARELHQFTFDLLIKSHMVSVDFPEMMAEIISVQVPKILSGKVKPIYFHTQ
Description: Displacement of [3H]dihydrotestosterone from human androgen receptor expressed in Sf9 cells

Androgen receptor [3] = target: T2, Androgen receptor
Description: Antagonist activity against human androgen receptor expressed in human MDA-MB-453 cells assessed as inhibition of dihydrotestosterone-induced effect by luciferase receptor gene assay

[4] = Apparent volume of distribution in Beagle dog at 0.8 mg/kg, iv after 24 hrs; format: ADME, organism-based, Canis lupus familiaris; design: dose 0.8 mg/kg, route intravenous; conditions: in vivo, read-out: Vdss
Syrian golden hamster [5] = assay: Reduction of sebum ester production in golden syrian hamster ear topically dosed twice daily 5 days per week for two weeks; format: functional, Mesocricetus auratus
[6] = Metabolic stability assessed as half life in rat liver microsomes at 5 uM; format: ADME, Microsome
[7] = Mean terminal half life in Beagle dog at 0.8 mg/kg, iv after 24 hrs; format: ADME, organism-based, Canis lupus familiaris; design: dose 0.8 mg/kg, route intravenous; conditions: in vivo, read-out: beta t1/2 (converted)
[8] = Metabolic stability assessed as intrinsic clearance per mg of protein in rat liver microsomes at 5 uM; format: ADME, Microsome
[9] = Plasma clearance in Beagle dog at 0.8 mg/kg, iv after 24 hrs; format: ADME, organism-based, Canis lupus familiaris; design: dose 0.8 mg/kg, route intravenous
NIH3T3 = assay: Phototoxicity in mouse 3T3 cells by neutral red uptake phototoxicity; format: cell-based
Mus musculus = assay: Activation of hair growth in C3H/HeN mouse hair growth model topically dosed twice daily 5 days per week for 4 weeks; format: functional, organism-based

Row | Structure (SMILES) | Activity (Syrian golden hamster [1]) | IC50 (Progesterone receptor) | IC50 (Androgen receptor [2]) | IC50 (Androgen receptor [3]) | also measured
1 | CC1(C)C(=O)N(c2ccc(C#N)c(C(F)(F)F)c2)C(=O)N1CCCCO [RU-58841] | 92% | 1000 nM |  |  | 
2 | N#Cc1ccc(C2CCCCC2O)cc1C(F)(F)F (racemic) |  | > 10000 nM | 26 nM | 90 nM | 
3 | COc1cc(-c2ccccc2O)ccc1C#N | 87% | 3250 nM | 37 nM | 20.1 nM | 
4 | N#Cc1ccc(-c2ccccc2O)cc1C(F)(F)F | 86% |  |  |  | 
5 | C[C@H](c1ccccc1)N(C)c1cc(C(F)(F)F)c(C#N)cn1 |  | 1660 nM |  |  | 
6 | N#Cc1ccc(O[C@@H]2CCCC[C@H]2C#N)cc1C(F)(F)F |  | > 10000 nM |  |  | 
7 | N#Cc1ccc([C@@H]2CCCC[C@@H]2O)cc1C(F)(F)F |  |  | 1600 nM |  | 
8 | N#Cc1ccc([C@H]2CCCC[C@H]2O)cc1C(F)(F)F | 85% | > 10000 nM | 37 nM | 43 nM | Vd [4]: 6.5 L/kg; ED50 (Syrian golden hamster [5]): 0.4%; half-life at 5 µM [6]: 4 min; half-life [7]: 2.6 h; microsomal CLint at 5 µM [8]: 350 µL/min/mg; clearance [9]: 40 mL/min/kg; Activity (NIH3T3): Non-toxic; Activity (Mus musculus): Active
9 | N#Cc1ccc([C@H]2CCCC[C@@H]2O)cc1C(F)(F)F |  |  | > 3000 nM |  | 
